Results from patent US12077503B2, “Substituted cyclic amides and their use as herbicides” (FMC CORPORATION, priority 2015, dated 2024).

Legend:
Format in all cases: in vivo
corn (Zea mays) [1] = test: Test G Post-Emergence Protocol; conditions: Zea mays, post-emergence, 312 h, read-out: Corn damage rating; for plant injury at 15.625 g/ha: 15.625 g ai/ha, evaluated after 13 days (100=total damage to plant; 0=no damage to plant); for plant injury at 62.5 g/ha: 62.5 g ai/ha; for plant injury at 62.5 g/ha / plant injury at 250 g/ha: evaluated after 13 days, 100=total damage to plant, 0=no damage to plant; for plant injury at 250 g/ha: 250 g ai/ha
In short: (§1)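 Scores run 0 (no damage) to 100 (total damage) and were taken 13 days after spraying. Plants had been raised in pots for 8 days under glasshouse control (24/16 °C, 14 h photoperiod, 65% humidity) and then treated at 15.625, 62.5 or 250 g/ha.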

[2] = test system: velvetleaf (Abutilon theophrasti); test: Test G Post-Emergence Protocol; conditions: Abutilon theophrasti, post-emergence, 312 h, read-out: Velvetleaf damage rating; for pest or weed control at 15.625 g/ha: 15.625 g ai/ha, evaluated after 13 days (100=total damage to plant; 0=no damage to plant); for pest or weed control at 62.5 g/ha: 62.5 g ai/ha; for pest or weed control at 62.5 g/ha / pest or weed control at 250 g/ha: evaluated after 13 days, 100=total damage to plant, 0=no damage to plant; for pest or weed control at 250 g/ha: 250 g ai/ha
In short: as §1

[3] = test system: redroot pigweed (Amaranthus retroflexus); test: Test G Post-Emergence Protocol; conditions: Amaranthus retroflexus, post-emergence, 312 h, read-out: Pigweed, Redroot damage rating; for pest or weed control at 15.625 g/ha: 15.625 g ai/ha, evaluated after 13 days (100=total damage to plant; 0=no damage to plant); for pest or weed control at 62.5 g/ha: 62.5 g ai/ha; for pest or weed control at 62.5 g/ha / pest or weed control at 250 g/ha: evaluated after 13 days, 100=total damage to plant, 0=no damage to plant; for pest or weed control at 250 g/ha: 250 g ai/ha
In short: as §1

[4] = test system: ivy-leaved morning glory (Ipomoea hederacea); test: Test G Post-Emergence Protocol; conditions: Ipomoea, post-emergence, 312 h, read-out: Morningglory, Ivy-leaved damage rating; for pest or weed control at 15.625 g/ha: 15.625 g ai/ha, evaluated after 13 days (100=total damage to plant; 0=no damage to plant); for pest or weed control at 62.5 g/ha: 62.5 g ai/ha; for pest or weed control at 62.5 g/ha / pest or weed control at 250 g/ha: evaluated after 13 days, 100=total damage to plant, 0=no damage to plant; for pest or weed control at 250 g/ha: 250 g ai/ha
In short: as §1

[5] = test system: barnyardgrass (Echinochloa crus-galli); test: Test G Post-Emergence Protocol; conditions: Echinochloa crus-galli, post-emergence, 312 h, read-out: Barnyardgrass damage rating; for pest or weed control at 15.625 g/ha: 15.625 g ai/ha, evaluated after 13 days (100=total damage to plant; 0=no damage to plant); for pest or weed control at 62.5 g/ha: 62.5 g ai/ha; for pest or weed control at 62.5 g/ha / pest or weed control at 250 g/ha: evaluated after 13 days, 100=total damage to plant, 0=no damage to plant; for pest or weed control at 250 g/ha: 250 g ai/ha
In short: as §1

[6] = test system: giant foxtail (Setaria faberi); test: Test G Post-Emergence Protocol; conditions: Setaria faberi, post-emergence, 312 h, read-out: Foxtail, Giant damage rating; for pest or weed control at 15.625 g/ha: 15.625 g ai/ha, evaluated after 13 days (100=total damage to plant; 0=no damage to plant); for pest or weed control at 62.5 g/ha: 62.5 g ai/ha; for pest or weed control at 62.5 g/ha / pest or weed control at 250 g/ha: evaluated after 13 days, 100=total damage to plant, 0=no damage to plant; for pest or weed control at 250 g/ha: 250 g ai/ha
In short: as §1

corn (Zea mays) [7] = test: Test G Pre-Emergence Protocol; conditions: Zea mays, pre-emergence, 312 h, evaluated after 13 days; for plant injury at 15.625 g/ha: 15.625 g ai/ha; for plant injury at 15.625 g/ha / plant injury at 250 g/ha: read-out: Corn damage rating (100=total damage to plant; 0=no damage to plant); for plant injury at 62.5 g/ha: 62.5 g ai/ha, 100=total damage to plant, 0=no damage to plant, read-out: Corn damage rating; for plant injury at 250 g/ha: 250 g ai/ha
In short: (§2)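 Glasshouse pre-emergence test: soil-sown seeds, sprayed after 1 d at 15.625, 62.5 or 250 g/ha. Conditions 24/16° C day/night, 14 h light, 65% humidity, watering twice daily. Rating 13 d post-spray (100 = total damage).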

[8] = test system: velvetleaf (Abutilon theophrasti); test: Test G Pre-Emergence Protocol; conditions: Abutilon theophrasti, pre-emergence, 312 h, evaluated after 13 days; for pest or weed control at 15.625 g/ha: 15.625 g ai/ha; for pest or weed control at 15.625 g/ha / pest or weed control at 250 g/ha: read-out: Velvetleaf damage rating (100=total damage to plant; 0=no damage to plant); for pest or weed control at 62.5 g/ha: 62.5 g ai/ha, 100=total damage to plant, 0=no damage to plant, read-out: Velvetleaf damage rating; for pest or weed control at 250 g/ha: 250 g ai/ha
In short: as §2

[9] = test system: redroot pigweed (Amaranthus retroflexus); test: Test G Pre-Emergence Protocol; conditions: Amaranthus retroflexus, pre-emergence, 312 h, evaluated after 13 days; for pest or weed control at 15.625 g/ha: 15.625 g ai/ha; for pest or weed control at 15.625 g/ha / pest or weed control at 250 g/ha: read-out: Pigweed, Redroot damage rating (100=total damage to plant; 0=no damage to plant); for pest or weed control at 62.5 g/ha: 62.5 g ai/ha, 100=total damage to plant, 0=no damage to plant, read-out: Pigweed, Redroot damage rating; for pest or weed control at 250 g/ha: 250 g ai/ha
In short: as §2

[10] = test system: ivy-leaved morning glory (Ipomoea hederacea); test: Test G Pre-Emergence Protocol; conditions: Ipomoea, pre-emergence, 312 h, evaluated after 13 days; for pest or weed control at 15.625 g/ha: 15.625 g ai/ha; for pest or weed control at 15.625 g/ha / pest or weed control at 250 g/ha: read-out: Morningglory, Ivy-leaved damage rating (100=total damage to plant; 0=no damage to plant); for pest or weed control at 62.5 g/ha: 62.5 g ai/ha, 100=total damage to plant, 0=no damage to plant, read-out: Morningglory, Ivy-leaved damage rating; for pest or weed control at 250 g/ha: 250 g ai/ha
In short: as §2

[11] = test system: barnyardgrass (Echinochloa crus-galli); test: Test G Pre-Emergence Protocol; conditions: Echinochloa crus-galli, pre-emergence, 312 h, evaluated after 13 days; for pest or weed control at 15.625 g/ha: 15.625 g ai/ha; for pest or weed control at 15.625 g/ha / pest or weed control at 250 g/ha: read-out: Barnyardgrass damage rating (100=total damage to plant; 0=no damage to plant); for pest or weed control at 62.5 g/ha: 62.5 g ai/ha, 100=total damage to plant, 0=no damage to plant, read-out: Barnyardgrass damage rating; for pest or weed control at 250 g/ha: 250 g ai/ha
In short: as §2

[12] = test system: giant foxtail (Setaria faberi); test: Test G Pre-Emergence Protocol; conditions: Setaria faberi, pre-emergence, 312 h, evaluated after 13 days; for pest or weed control at 15.625 g/ha: 15.625 g ai/ha; for pest or weed control at 15.625 g/ha / pest or weed control at 250 g/ha: read-out: Foxtail, Giant damage rating (100=total damage to plant; 0=no damage to plant); for pest or weed control at 62.5 g/ha: 62.5 g ai/ha, 100=total damage to plant, 0=no damage to plant, read-out: Foxtail, Giant damage rating; for pest or weed control at 250 g/ha: 250 g ai/ha
In short: as §2

Row | Compound | plant injury at 15.625 g/ha (corn (Zea mays) [1]) [%] | plant injury at 62.5 g/ha (corn (Zea mays) [1]) [%] | plant injury at 250 g/ha (corn (Zea mays) [1]) [%] | pest or weed control at 15.625 g/ha [2] [%] | pest or weed control at 62.5 g/ha [2] [%] | pest or weed control at 250 g/ha [2] [%] | pest or weed control at 15.625 g/ha [3] [%] | pest or weed control at 62.5 g/ha [3] [%] | pest or weed control at 250 g/ha [3] [%] | pest or weed control at 15.625 g/ha [4] [%] | pest or weed control at 62.5 g/ha [4] [%] | pest or weed control at 250 g/ha [4] [%] | pest or weed control at 15.625 g/ha [5] [%] | pest or weed control at 62.5 g/ha [5] [%] | pest or weed control at 250 g/ha [5] [%] | pest or weed control at 15.625 g/ha [6] [%] | pest or weed control at 62.5 g/ha [6] [%] | pest or weed control at 250 g/ha [6] [%] | plant injury at 15.625 g/ha (corn (Zea mays) [7]) [%] | plant injury at 62.5 g/ha (corn (Zea mays) [7]) [%] | also measured
1 | Cc1cc([C@H]2CN(C)C(=O)[C@@H]2C(=O)Nc2cccc(F)c2F)cnn1 (racemic) [Compound 1662] | 0 | 0 | 0 | 0 | 0 | 0 | 0 | 0 | 0 | 0 | 0 | 0 | 0 | 0 | 0 | 0 | 0 | 0 | 0 | 0 | plant injury at 250 g/ha (corn (Zea mays) [7]): 0%; pest or weed control at 15.625 g/ha [8]: 0%; pest or weed control at 62.5 g/ha [8]: 0%; pest or weed control at 250 g/ha [8]: 0%; pest or weed control at 15.625 g/ha [9]: 0%; pest or weed control at 62.5 g/ha [9]: 0%; pest or weed control at 250 g/ha [9]: 0%; pest or weed control at 15.625 g/ha [10]: 0%; pest or weed control at 62.5 g/ha [10]: 0%; pest or weed control at 250 g/ha [10]: 0%; pest or weed control at 15.625 g/ha [11]: 0%; pest or weed control at 62.5 g/ha [11]: 0%; pest or weed control at 250 g/ha [11]: 0%; pest or weed control at 15.625 g/ha [12]: 0%; pest or weed control at 62.5 g/ha [12]: 0%; pest or weed control at 250 g/ha [12]: 0%
2 | Cc1cc([C@H]2CN(C)C(=O)[C@@H]2C(=O)Nc2ccc(F)c(F)c2F)cnn1 (racemic) [Compound 1663] | 0 | 0 | 0 | 0 | 0 | 0 | 0 | 0 | 0 | 0 | 0 | 0 | 0 | 0 | 0 | 0 | 0 | 0 | 0 | 0 | plant injury at 250 g/ha (corn (Zea mays) [7]): 0%; pest or weed control at 15.625 g/ha [8]: 0%; pest or weed control at 62.5 g/ha [8]: 0%; pest or weed control at 250 g/ha [8]: 0%; pest or weed control at 15.625 g/ha [9]: 0%; pest or weed control at 62.5 g/ha [9]: 0%; pest or weed control at 250 g/ha [9]: 0%; pest or weed control at 15.625 g/ha [10]: 0%; pest or weed control at 62.5 g/ha [10]: 0%; pest or weed control at 250 g/ha [10]: 0%; pest or weed control at 15.625 g/ha [11]: 0%; pest or weed control at 62.5 g/ha [11]: 0%; pest or weed control at 250 g/ha [11]: 0%; pest or weed control at 15.625 g/ha [12]: 0%; pest or weed control at 62.5 g/ha [12]: 0%; pest or weed control at 250 g/ha [12]: 0%
3 | CCS(=O)(=O)c1ccccc1NC(=O)[C@H]1C(=O)N(C)C[C@@H]1c1ccc(C(F)(F)F)cc1 (racemic) [Compound 1664] | 0 | 40 | 80 | 0 | 10 | 20 | 20 | 80 | 80 | 0 | 20 | 30 | 0 | 60 | 70 | 60 | 80 | 80 | 0 | 0 | plant injury at 250 g/ha (corn (Zea mays) [7]): 80%; pest or weed control at 15.625 g/ha [8]: 0%; pest or weed control at 62.5 g/ha [8]: 0%; pest or weed control at 250 g/ha [8]: 20%; pest or weed control at 15.625 g/ha [9]: 0%; pest or weed control at 62.5 g/ha [9]: 20%; pest or weed control at 250 g/ha [9]: 100%; pest or weed control at 15.625 g/ha [10]: 0%; pest or weed control at 62.5 g/ha [10]: 0%; pest or weed control at 250 g/ha [10]: 0%; pest or weed control at 15.625 g/ha [11]: 0%; pest or weed control at 62.5 g/ha [11]: 40%; pest or weed control at 250 g/ha [11]: 80%; pest or weed control at 15.625 g/ha [12]: 30%; pest or weed control at 62.5 g/ha [12]: 70%; pest or weed control at 250 g/ha [12]: 90%
